Source: patent US5693844A, “2-cyano-3-hydroxy-propenamides” (Roussel UCLAF, priority 1995, dated 1997)
Like-named read-outs stand apart in the source and are kept apart here.

Target: T1, human DHO-DH (Homo sapiens, UniProt Q02127)
T1 construct: The spleen tissue was chopped and then homogenized with a teflon glass homogenizer; from tissue; host or cells: human spleen, crude membrane preparation
Assay: Dihydroorotate Dehydrogenase (DHO-DH) Assay: DCIP-linked inhibition of human spleen membrane DHO-DH
Type: biochemical
Conditions: human spleen membranes, 90 min preincubation at 37° C., pH 8.0, 500 μM dihydroorotate, 100 μM coenzyme Q10, 200 μM DCIP, loss of absorbance at 650 nm
Excerpt: Human spleen membrane DHO-DH catalyzed conversion of dihydroorotate to orotate is accompanied by reduction of coenzyme Q10. Reoxidation of coenzyme Q10 is linked to reduction of dichlorophenolindophenol and is monitored as a loss of absorbance at 650 nm. The rate of loss in absorbance is a direct measurement of the rate of the DHO-DH enzyme catalyzed reaction.
Crude membrane preparations were made using a modification of a published differential centrifugation procedure. All procedures were carried out on ice or at a temperature of 4° C. using pre-cooled buffers and equipment.
The spleen tissue was chopped and then homogenized with a teflon glass homogenizer (about 10 passes at 250 rpm) in 10 volumes of a homogenization buffer (10 mM Tris-HCl containing 0.25M sucrose, 10 μg/ml soybean trypsin inhibitor, 2 μg/ml aprotinin, pepstatin A and leupeptin pH 7.4). The homogenate was centrifuged at ^~ 470 g for 10 minutes and the supernatant was saved. Pellets were resuspended in 4-6 volumes of homogenization buffer using 5 passes of the teflon glass homogenizer (250 rpm) and centrifuged for 10 minutes at ^~ 470 g. The supernatant was combined with that from the first centrifugation step (post nuclear fraction) and the pellets containing nuclei and tissue debris were discarded. The post nuclear supernatant was centrifuged at 125,000 g for 40 minutes. The pellets were resuspended in homogenization buffer (2 ml/g wet tissue) using about 10 passes of the teflon glass homogenizer. Aliquots of the preparation were stored at -80° C.
Membranes (0.33-0.5 mg protein) were incubated with 100 μM coenzyme Q10 in 50 mM Tris-HCl, 0.1% Triton X-100, 1 mM KCN pH 8.0. Following a 90 minute preincubation at 37° C., the reaction was initiated by addition of 500 μM of dihydroorotate and the reduction of DCIP (200 μM) was monitored by loss of absorbance at 650 nm using a 96-well plate reader at 37° C. Drug concentrations increased in half log unit or full log unit intervals with each concentration tested at least in triplicate.

T1 sequence (Q02127 whole entry): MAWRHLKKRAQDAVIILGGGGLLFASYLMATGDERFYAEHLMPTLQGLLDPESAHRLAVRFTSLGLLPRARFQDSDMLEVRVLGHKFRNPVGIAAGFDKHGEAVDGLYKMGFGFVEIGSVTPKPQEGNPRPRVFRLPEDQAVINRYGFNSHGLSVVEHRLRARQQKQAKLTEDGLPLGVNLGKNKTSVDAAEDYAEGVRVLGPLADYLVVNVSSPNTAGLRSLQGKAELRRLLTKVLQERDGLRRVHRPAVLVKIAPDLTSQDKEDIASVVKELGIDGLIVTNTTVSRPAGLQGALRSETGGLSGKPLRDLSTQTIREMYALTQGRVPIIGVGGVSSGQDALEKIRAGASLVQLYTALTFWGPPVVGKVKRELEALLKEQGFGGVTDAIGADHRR

| IC50 (read-out: IC50) | SMILES | IC50 |
| --- | --- | --- |
| 1.95 to 2.1 µM | N#Cc1ccc(NC(=O)C(C#N)C(=O)C2CC2)cc1 (stereo not shown) [A] |  |
| > 0.1 µM | C#CC(=O)C(C#N)C(=O)Nc1ccc(C(F)(F)F)cc1 (stereo not shown) [B] |  |
|  | CC=CC(=O)C(C#N)C(=O)Nc1ccc(C(F)(F)F)cc1 (stereo not shown) [C] | 0.0794 µM |
| 0.3 µM | N#CC(C(=O)Nc1ccc([S+]([O-])C(F)(F)F)cc1)=C(O)C1CC1 (stereo not shown) [Example 2, N-(4'-trifluoromethylsulfinyl-phenyl)-2-cyano-3-cyclopropyl-3-hydroxy-prop-2-enamide] |  |
